Measured values: patent US20250281433A1, “NOVEL DERIVATIVE COMPOUND HAVING BIPHENYL GROUP INTRODUCED INTO AMINO-ALKANOIC ACID AND ANTI-INFLAMMATORY COMPOSITION COMPRISING SAME” (AMTIXBIO CO., LTD., priority 2020, published 2025)

Key:
[1] = test system: IL-6 production in RAW264.7 cells; assay: LPS-induced IL-6 production in RAW264.7 cells (ELISA); type: cell-based, mouse
Protocol: The inhibitory effect on induced IL-6 cytokine production was analyzed. RAW264.7 cells (obtained from the Korean Cell Line Bank) were seeded at a density of 5×10^5 cells/well in a 12-well plate and stabilized in a CO2 incubator at 37° C. with 5% carbon dioxide and saturated humidity. After 24 hours of incubation, the compounds of the present invention were prepared in DMEM at concentrations of 0 μg/mL or 8 μg/mL and pre-treated for 30 minutes. Next, lipopolysaccharide (LPS, Sigma-Aldrich, Cat No. L2887) was treated to a concentration of 1 μg/mL to induce an inflammatory response for 24 hours. Subsequently, mouse IL-6 ELISA kit (Labiskoma, Cat No. K0331230P) and mouse TNF-α ELISA kit (Labiskoma, Cat No. K0331186P) were used according to the manufacturer's instructions, and absorbance was measured. FK506 (FK-506 monohydrate, manufacturer: MilliporeSigma, product number: F4679, U.S.A) was used as a control substance.
After inducing inflammation as described in (1) and (2) above, the supernatant was collected, and the quantification of IL-6 in the supernatant was performed using the IL-6 ELISA kit (Mouse IL-6 ELISA Kit, pink-ONE, manufactured by Komabiotech, Product No. K0331230P) according to the manufacturer's instructions. Specifically, the amount of IL-6 in the supernatant was quantified according to the ELISA kit protocol, and the absorbance was measured at OD 450 nm using a microplate reader (Multiskan Sky, manufactured by Thermo Fisher Scientific). […] In Table 1 to Table 3, FIG. 1, and FIG. 2, the relative values of IL-6 generated after pretreatment with the compounds of the present invention were expressed as a percentage relative to the IL-6 production (100%) induced by LPS, TNF-α, or IFN-β treatment.

[2] = test system: TSLP in HaCaT keratinocytes; conditions: 8 μg/ml, 1 h pre-treatment, TNF-α 100 ng/ml 24 h; compared to the control group FK506
Protocol: (§1) HaCaT keratinocytes, a human skin keratinocyte cell line (obtained from the Korean Cell Line Bank), were seeded in a 12-well plate at a density of 1×10^5 cells per well and cultured for at least 12 hours in a 37° C. humidified incubator containing 5% carbon dioxide and saturated water vapor. After pre-treatment with the compound 77 of the present invention (0 μg/ml or 8 μg/ml) or the immunosuppressant FK506 (FK-506 monohydrate, manufacturer: MilliporeSigma product number: F4679, USA) as a control for 1 hour, TNF-α (Tumor Necrosis Factor-α human, manufacturer: MilliporeSigma) was treated for 24 hours as an inflammatory response inducer at a concentration of 100 ng/ml. Next, the supernatant was obtained and TSLP and IL-6 ELISA (Human TSLP and IL-6 ELISA Kit, pink-ONE, manufacturer: Komabiotech) each was performed. Specifically, the contents of TSLP and IL-6 in the supernatant were quantified according to the protocol of the ELISA kit with the supernatant, and absorbance was measured at a wavelength of 450 nm using a microplate reader (Multiskan Sky, manufacturer: Thermo Fisher Scientific, product number: 51119600DP).

[3] = test system: interleukin-6 in HaCaT keratinocytes; conditions: 8 μg/ml, 1 h pre-treatment, TNF-α 100 ng/ml 24 h; compared to the control group FK506
Protocol: as §1

CCCC(N)C(=O)NCCc1ccc(-c2ccc(C(F)(F)F)cc2)cc1.Cl (racemic) [Compound 77, (R)/(S)-2-amino-N-(2-(4′-(trifluoromethyl)-[1,1′-biphenyl]-4-yl)ethyl)pentanamide hydrochloride]
IL-6 ([1]; Table 1, LPS 1 μg/mL 24 h, compound 77 at 8 μg/ml, FK506 concentration not given): 191.20 pg/mL
IL-6 (%) ([1]; Table 1, relative to IL-6 production induced by LPS (100%), compound 77 at 8 μg/ml, FK506 concentration not given): 13.19%
Relative amount of IL-6 compared to LPS induction (%) ([1]; Table 3, LPS 1 μg/mL 24 h, compounds at 8 μg/mL (FIG. 1), LPS alone = 100%): 5%
amount of TSLP [2]: significantly reduced
amount of interleukin-6 [3]: significantly reduced
